What was measured:
[1] = target: Histone deacetylase 9 (Homo sapiens) (UniProt Q9UKV0); assay: Inhibition of HDAC9 (unknown origin) assessed as residual activity at 3.33 x 10^-6M (reference value: 97.55%); settings: dose 3.33 10^-6M
HL-60 [2] = assay: Downregulation of HDAC3 protein expression in human HL-60 cells by Western blot analysis; assay type: functional, cell-based; settings: dose 0.2-5 µM
[3] = target: T1, Histone deacetylase 7 (Homo sapiens) (UniProt Q8WUI4); assay: Inhibition of HDAC7 (unknown origin) assessed as residual activity at 1 x 10^-5M (reference value: 102.66%)
T1 sequence (whole entry): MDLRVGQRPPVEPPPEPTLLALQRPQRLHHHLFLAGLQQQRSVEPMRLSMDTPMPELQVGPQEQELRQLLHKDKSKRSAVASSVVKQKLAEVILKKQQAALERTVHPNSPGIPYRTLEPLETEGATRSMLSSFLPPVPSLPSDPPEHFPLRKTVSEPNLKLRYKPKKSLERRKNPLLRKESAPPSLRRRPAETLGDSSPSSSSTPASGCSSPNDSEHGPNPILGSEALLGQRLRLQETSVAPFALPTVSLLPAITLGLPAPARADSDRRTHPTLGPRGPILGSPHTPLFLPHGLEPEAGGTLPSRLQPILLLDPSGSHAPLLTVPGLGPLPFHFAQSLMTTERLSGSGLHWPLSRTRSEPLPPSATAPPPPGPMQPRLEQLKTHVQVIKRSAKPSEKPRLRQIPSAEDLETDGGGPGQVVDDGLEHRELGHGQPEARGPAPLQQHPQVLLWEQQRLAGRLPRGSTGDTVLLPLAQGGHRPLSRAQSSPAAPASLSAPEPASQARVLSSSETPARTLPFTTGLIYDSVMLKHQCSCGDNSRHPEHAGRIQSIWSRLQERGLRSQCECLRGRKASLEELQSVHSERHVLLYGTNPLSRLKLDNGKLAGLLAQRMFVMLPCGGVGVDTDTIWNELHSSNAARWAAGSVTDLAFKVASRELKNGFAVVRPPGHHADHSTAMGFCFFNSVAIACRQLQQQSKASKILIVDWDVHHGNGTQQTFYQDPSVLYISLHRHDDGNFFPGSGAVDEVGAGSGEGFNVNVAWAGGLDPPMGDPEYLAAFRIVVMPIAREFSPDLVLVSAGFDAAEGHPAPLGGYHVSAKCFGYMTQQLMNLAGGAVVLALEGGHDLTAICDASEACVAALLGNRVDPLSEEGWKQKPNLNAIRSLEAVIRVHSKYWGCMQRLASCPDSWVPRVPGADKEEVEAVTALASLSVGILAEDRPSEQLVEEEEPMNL

Histone deacetylase 3 = Histone deacetylase 3 (Homo sapiens, UniProt O15379); assay: Inhibition of HDAC3 (unknown origin) using p53 residues 379 to 382 [RHKK(Ac)] as fluorogenic substrate assessed as residual activity at 4.57 x 10^-9M (reference value: 103.08%); settings: dose 4.57 10^-9M
Sequence of Histone deacetylase 3 (O15379 whole entry, the tested form may be a part): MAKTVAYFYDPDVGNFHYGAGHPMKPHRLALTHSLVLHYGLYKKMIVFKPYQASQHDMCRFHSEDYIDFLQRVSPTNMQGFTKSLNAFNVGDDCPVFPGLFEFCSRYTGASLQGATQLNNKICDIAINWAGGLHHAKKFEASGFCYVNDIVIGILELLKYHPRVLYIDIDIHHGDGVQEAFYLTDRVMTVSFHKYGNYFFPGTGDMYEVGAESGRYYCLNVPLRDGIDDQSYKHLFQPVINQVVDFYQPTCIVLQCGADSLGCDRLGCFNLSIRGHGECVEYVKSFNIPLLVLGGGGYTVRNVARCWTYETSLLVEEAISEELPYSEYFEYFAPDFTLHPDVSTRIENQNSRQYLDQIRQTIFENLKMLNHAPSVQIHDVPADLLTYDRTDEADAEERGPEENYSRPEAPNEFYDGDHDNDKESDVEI

[4] = target: T2, Protein deacetylase HDAC6 (Homo sapiens) (UniProt Q9UBN7); assay: Inhibition of HDAC6 (unknown origin) using p53 residues 379 to 382 [RHKK(Ac)] as fluorogenic substrate assessed as residual activity at 4.57 x 10^-9M (reference value: 101.06%); settings: dose 4.57 10^-9M
T2 sequence (whole entry): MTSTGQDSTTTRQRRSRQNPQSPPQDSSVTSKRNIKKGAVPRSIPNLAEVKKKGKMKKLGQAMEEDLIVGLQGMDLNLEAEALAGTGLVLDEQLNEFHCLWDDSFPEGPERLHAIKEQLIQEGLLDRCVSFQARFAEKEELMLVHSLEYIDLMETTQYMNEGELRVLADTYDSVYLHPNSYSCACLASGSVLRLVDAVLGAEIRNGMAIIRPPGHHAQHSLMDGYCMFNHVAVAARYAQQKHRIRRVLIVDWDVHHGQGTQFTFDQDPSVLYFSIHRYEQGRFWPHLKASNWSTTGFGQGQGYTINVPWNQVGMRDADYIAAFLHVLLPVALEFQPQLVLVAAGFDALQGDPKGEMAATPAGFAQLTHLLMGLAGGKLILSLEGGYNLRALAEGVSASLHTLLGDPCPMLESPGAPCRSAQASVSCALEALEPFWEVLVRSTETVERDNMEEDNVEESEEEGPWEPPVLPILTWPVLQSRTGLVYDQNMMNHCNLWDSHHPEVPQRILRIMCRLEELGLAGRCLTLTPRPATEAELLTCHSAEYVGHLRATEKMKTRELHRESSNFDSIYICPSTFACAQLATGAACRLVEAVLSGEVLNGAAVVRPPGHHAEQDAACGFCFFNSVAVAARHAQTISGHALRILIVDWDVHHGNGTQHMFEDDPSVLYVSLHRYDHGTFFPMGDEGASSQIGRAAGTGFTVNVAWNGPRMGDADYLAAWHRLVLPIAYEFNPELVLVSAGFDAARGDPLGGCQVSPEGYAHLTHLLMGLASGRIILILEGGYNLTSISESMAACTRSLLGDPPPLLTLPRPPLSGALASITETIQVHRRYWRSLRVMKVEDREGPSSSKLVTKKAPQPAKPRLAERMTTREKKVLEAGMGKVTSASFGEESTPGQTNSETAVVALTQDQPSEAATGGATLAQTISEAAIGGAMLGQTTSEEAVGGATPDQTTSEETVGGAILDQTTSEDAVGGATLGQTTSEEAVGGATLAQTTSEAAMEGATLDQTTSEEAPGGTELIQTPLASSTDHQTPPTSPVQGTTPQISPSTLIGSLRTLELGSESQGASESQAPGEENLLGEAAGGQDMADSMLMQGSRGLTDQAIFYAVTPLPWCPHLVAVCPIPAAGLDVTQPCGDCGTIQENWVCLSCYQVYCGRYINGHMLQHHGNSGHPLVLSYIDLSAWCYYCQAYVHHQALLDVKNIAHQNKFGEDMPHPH

HL-60 [5] = assay: Downregulation of PAR protein expression in human HL-60 cells at 0.5 to 1 times IC50 measured after 24 hrs by Western blot analysis; assay type: functional, cell-based
[6] = target: T2, Protein deacetylase HDAC6 (Homo sapiens); assay: Inhibition of HDAC6 (unknown origin) using p53 residues 379 to 382 [RHKK(Ac)] as fluorogenic substrate assessed as residual activity at 3.33 x 10^-6M (reference value: 101.06%); settings: dose 3.33 10^-6M

Sequence of Histone deacetylase 9 (Homo sapiens) (Q9UKV0 whole entry): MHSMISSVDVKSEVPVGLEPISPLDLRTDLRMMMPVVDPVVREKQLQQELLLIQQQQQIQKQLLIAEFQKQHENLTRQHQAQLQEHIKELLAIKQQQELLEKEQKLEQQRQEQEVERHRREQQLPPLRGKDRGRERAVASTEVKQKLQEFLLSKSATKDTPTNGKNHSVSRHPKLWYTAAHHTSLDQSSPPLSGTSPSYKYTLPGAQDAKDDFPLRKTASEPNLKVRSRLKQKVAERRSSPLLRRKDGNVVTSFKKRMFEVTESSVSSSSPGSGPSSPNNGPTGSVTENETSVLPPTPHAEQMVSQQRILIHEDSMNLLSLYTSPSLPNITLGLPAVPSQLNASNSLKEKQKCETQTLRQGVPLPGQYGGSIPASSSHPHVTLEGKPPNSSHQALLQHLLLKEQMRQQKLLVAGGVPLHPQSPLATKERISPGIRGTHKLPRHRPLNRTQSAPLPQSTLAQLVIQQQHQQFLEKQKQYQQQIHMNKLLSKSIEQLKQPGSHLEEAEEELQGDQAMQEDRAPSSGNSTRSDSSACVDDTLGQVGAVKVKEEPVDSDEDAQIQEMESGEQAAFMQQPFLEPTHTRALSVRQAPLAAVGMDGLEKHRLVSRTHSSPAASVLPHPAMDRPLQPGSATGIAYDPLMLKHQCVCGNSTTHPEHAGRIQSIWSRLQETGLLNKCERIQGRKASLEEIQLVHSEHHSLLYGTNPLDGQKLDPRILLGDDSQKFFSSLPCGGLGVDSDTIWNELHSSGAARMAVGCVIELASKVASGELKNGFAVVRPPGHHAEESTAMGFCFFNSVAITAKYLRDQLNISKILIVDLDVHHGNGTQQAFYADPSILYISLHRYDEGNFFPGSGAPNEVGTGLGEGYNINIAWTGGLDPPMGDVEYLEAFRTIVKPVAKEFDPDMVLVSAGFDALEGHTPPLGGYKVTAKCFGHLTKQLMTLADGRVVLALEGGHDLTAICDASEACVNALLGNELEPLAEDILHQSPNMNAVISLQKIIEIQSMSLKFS

## NC(=O)c1cccc2[nH]c(-c3ccc(NCc4ccc(C(=O)Nc5ccccc5N)cc4)cc3)nc12
[1]
  Activity: 81%
HL-60 [2]
  Activity: Dose-Dependent Effect
[3]
  Activity: 92%
Histone deacetylase 3
  Activity: 111%
[4]
  Activity: 103%
HL-60 [5]
  Activity: Dose-Dependent Effect
[6]
  Activity: 105%
